Measured values taken from publication PMC5773577, “Novel Miniature Membrane Active Lipopeptidomimetics against Planktonic and Biofilm Embedded Methicillin-Resistant Staphylococcus aureus” (Scientific Reports, 2018).
Converted amounts (≈) assume the structure as drawn.

Assays:
[1] = system: 48 h mature MRSA ATCC 33591 biofilms; assay: 48 h mature biofilm, confocal laser scanning microscopy (Live/Dead); format: cell-based, Staphylococcus aureus; settings: 24 h treatment at 20 × MIC (S-7 226 μg/mL, S-8 28 μg/mL, VAN 28 μg/mL), untreated 22 μm
Procedure: For the experiment, a protocol as described previously was used with slight modifications[24],[72]. Briefly, stationary phase MRSA ATCC 33591 culture ~10^5 CFU/mL in TSB medium (supplemented with 0.25% glucose and 0.5% NaCl) was added to the well of an 8-well chamber slide (200 μL). The slide was incubated at 37 °C without shaking for 24 h. After 24 h, the medium was discarded and the biofilm was washed with PBS once (10 mM sodium phosphate, 150 mM NaCl, pH 7.3). […] After 48 h (24 h + 24 h), the planktonic cells were removed and the biofilms were washed with PBS once. To the wells, 200 μL of PBS containing BacLight Live/Dead viability stain [SYTO9 (green fluorescence) and propidium iodide (PI) (red fluorescence) in equal volume] was added and the chamber slides were incubated at room temperature for 15 min in dark. After 15 min, the stain was removed and biofilms were washed with PBS once. To fix the biofilms, 200 μL of neutral buffered formalin (10% in PBS) was added to each well and the slides were kept at room temperature in dark for 30 min. After fixation, the biofilms were washed once, the chamber was removed and a cover slip was placed over the slide. The biofilms were viewed with an Olympus FluoView^TM FV1000 confocal laser scanning microscope (2D and z-stacking). […] For each sample, the biofilms thickness was also determined using z-scanning confocal microscopy. […]

[2] = system: Vancomycin-resistant E. faecium (ATCC 700221); assay: microbe, parasite or virus in culture; format: cell-based; settings: Enterococcus faecium, ATCC700221, MHB, 2–5 × 10^5 CFU/mL, 16–18 h, 37 °C, read-out: Minimum inhibitory concentration, MIC
Procedure: (§1) The antibacterial activity was evaluated as MIC using slight modifications to a serial broth micro dilution method as reported previously[66],[67]. Briefly, to each treatment well of the 96-well plate (Corning Incorporated, USA) 10 μL of peptidomimetic/antibiotic was added and subsequently diluted serial 2-fold in 0.2% BSA (in 0.01% acetic acid). Then to each well of the first 11 columns 100 μL of mid-log phase bacterial suspension in MHB medium was added to get 2–5 × 10^5 CFU/mL. Cultures without test peptidomimetics/antibiotics were used as growth control. Uninoculated MHB medium was used as negative control. The microtitre plates were incubated overnight with agitation (180 rpm) at 37 °C. After 16–18 h incubation, absorbance was read at 600 nm using an ELISA plate reader (Molecular Devices, Sunnyvale, CA, USA). The experiments were carried out in duplicate on at least three different days.

E. faecalis (ATCC 29212) = assay: microbe, parasite or virus in culture; format: cell-based; settings: Enterococcus faecalis, ATCC29212, MHB, 2–5 × 10^5 CFU/mL, 16–18 h, 37 °C, read-out: Minimum inhibitory concentration, MIC
Procedure: as §1

MRSA ATCC 33591 biofilm [3] = assay: Biofilm formation inhibition, crystal violet (CV) assay; format: cell-based, Staphylococcus aureus; settings: 24 h biofilm formation inhibition, 2.5 μg/mL
Procedure: (§2) For the experiment, a protocol as described previously was used with slight modifications. Briefly, desired concentrations of the test agents in PBS were added to the wells of a 96-well plate (100 μL). Thereafter, overnight grown stationary phase MRSA ATCC 33591 culture (~4 × 10^5 CFU/mL) in TSB medium (supplemented with 0.25% glucose and 0.5% NaCl) was added to the 96-well plates (100 μL). The plates were incubated at 37 °C without shaking for 24 h. After 24 h, the used medium was discarded and the biofilms formed were washed with PBS once. Subsequently, CV and AB assays were performed to quantify biomass and viability respectively, as described below:
For CV assay after washing the biofilms, the plates were heat fixed at 60 °C for 1 h and 0.1% aqueous CV solution (200 μL) was added to the wells. After 15 min incubation, excess CV was washed off and biomass adhered CV was dissolved in 33% glacial acetic acid (200 μL). The plates were kept at room temperature for 15 min. […] To quantify CV associated biomass, the absorbance was read at 570 nm.
The experiments were repeated on two different days and on each day 6 wells were used for a single treatment. […] Corresponding to CV and AB assay the viability of cells upon treatment was also evaluated. […] The agar plates were incubated at 37 °C for 16–24 h and CFUs were counted. […]

MRSA ATCC 33591 = assay: Membrane depolarization assay, DiSC3(5); format: cell-based, Staphylococcus aureus; settings: for % depolarization relative to melittin control (10 μM, set as 100%): 2 min, DiSC3(5), HEPES-glucose buffer pH 7.2, 37 °C, mean ± S.D., two days
Procedure: The cytoplasmic membrane depolarization in MRSA ATCC 33591 strain was measured using membrane potential sensitive dye 3,3′-dipropylthiacarbocyanine iodide (DiSC3(5)) with a protocol described previously with slight modifications[23],[48]. Briefly, exponential phase cells grown in MHB were harvested by centrifugation, washed and re-suspended in respiration buffer (5 mM HEPES, 20 mM glucose, pH 7.2) to 2.5 × 10^6 CFU/mL. The cells were divided into 1 mL aliquots and incubated with 3.6 μM of DiSC3(5) (in dark) for 30 min to get steady baseline fluorescence intensity. The dye-loaded cells (800 μL) were then treated with peptidomimetics at respective 1× and 4× MIC concentrations (2–20 μL) and consequent fluorescence increase after 2 min of addition was measured in a Shimadzu RF-5301 PC spectrofluorimeter. As controls IL, melittin and VAN were also assayed under identical conditions. The samples were excited at 622 nm and emission was recorded between 650–700 nm with 3 nm slit width for both excitation and emission. The temperature was maintained at 37 °C throughout the experiment. Depolarization kinetics was measured at 4 × MIC of test agents for 5 min. The experiment was repeated on two different days and for Fig. 3 panel (A) mean ± S.D. data for % depolarization relative to melittin control (10 μM) set as 100% is presented here. For panel (B) representative data is shown here. The viability of dye-loaded cells corresponding to depolarization experiment at 4 × MIC concentration was also measured by plating the diluted aliquots onto BHI agar plates.

MRSA ATCC 33591 biofilm [4] = assay: Biofilm formation inhibition, viable count assay; format: cell-based, Staphylococcus aureus; settings: 24 h biofilm formation inhibition, 2.5 μg/mL
Procedure: as §2
The experiments were repeated on two different days and on each day 6 wells were used for a single treatment. Mean ± S.E. for both CV assay and AB assay is presented here. Corresponding to CV and AB assay the viability of cells upon treatment was also evaluated. Towards this 200 μL PBS was added to washed and treated wells of the 96-well plate and the contents were scraped thoroughly. The resulting bacterial suspension was sonicated briefly, diluted in PBS and plated on BHI agar plates. The agar plates were incubated at 37 °C for 16–24 h and CFUs were counted. Mean ± S.E. data from two independent experiments performed on two different days is shown here.

CN[C@H](CC(C)C)C(=O)N[C@H]1C(=O)N[C@@H](CC(N)=O)C(=O)N[C@H]2C(=O)N[C@H]3C(=O)N[C@H](C(=O)N[C@H](C(=O)O)c4cc(O)cc(O)c4-c4cc3ccc4O)[C@H](O)c3ccc(c(Cl)c3)Oc3cc2cc(c3O[C@@H]2O[C@H](CO)[C@@H](O)[C@H](O)[C@H]2O[C@H]2C[C@](C)(N)[C@H](O)[C@H](C)O2)Oc2ccc(cc2Cl)[C@H]1O [VAN, vancomycin]
biofilm thickness [1]: 14 μm
MIC [2]: > 45.4 µg/mL
MIC (E. faecalis (ATCC 29212)): 1.4 µg/mL (≈ 0.966 µM)
reduction of biomass (CV assay) (MRSA ATCC 33591 biofilm [3]): > 95%
Depolarization kinetics: time to increase in relative fluorescence intensity (RFI) (MRSA ATCC 33591; 4 × MIC, monitored for 5 min): RFI values similar to untreated control cells
% depolarization relative to melittin control (10 μM, set as 100%) (MRSA ATCC 33591; at 4 × MIC): 4.7 ± 4.1%
% depolarization relative to melittin control (10 μM, set as 100%) (MRSA ATCC 33591; at MIC): 2.9 ± 4.8%
log reduction in viability compared to 24 h growth control (MRSA ATCC 33591 biofilm [4]): > 3 log
remaining viable count (MRSA ATCC 33591 biofilm [4]; mean ± S.E., two experiments, untreated 7.59 ± 0.08): 1.44 ± 1.44 log CFU/mL
